In patent US20240417747A1 (priority 2021, published 2024):
Entries after “also recorded” stand apart in the source; their conditions may differ. Structures can show the parent of a compound that is named as a salt. Where two headings read alike, the source gives them in different places.

Legend:
[1] = system: CLas-positive stems of Valencia sweet orange; details: branches soaked in DPI 25 μM, 48 h, vs water
[2] = system: HLB positive C. sinensis 'Valencia' trees; assay type: in vivo, Citrus sinensis; details: for H2O2 concentration in exudates of phloem-enriched bark tissues / cell death (ion leakage) in exudates of phloem-enriched bark tissues: weekly foliar spray, six weeks
[3] = system: C. sinensis protoplast cells; assay type: cell-based, Citrus sinensis
[4] = system: CLas-positive 5-year-old C. sinensis trees; assay type: in vivo, Citrus sinensis; details: 7 days post trunk injection of streptomycin
[5] = system: Arabidopsis; details: cited from earlier work
[6] = system: immortalized rat embryo fibroblasts; details: cited from earlier work
[7] = system: ROS related genes in C. sinensis protoplast cells; assay type: cell-based, Citrus sinensis; details: GA 5 mg/L, 1.8 mM H2O2, 6 h
[8] = system: HLB positive C. sinensis 'Valencia' and 'Vernia'; assay type: in vivo, Citrus sinensis
[9] = uric acid 1.8 mM, rutin 0.6 mM, listed as Uric acid
[10] = GA 5 mg/L foliar spray weekly for six weeks
[11] = GA 25 mg/L foliar spray weekly for six weeks
[12] = 6-year-old 'Valencia' and 'Vernia', eight months after GA application
[13] = GA 1,247 ppm foliar spray, 8 months after application

c1ccc2c(c1)[I+]c1ccccc1-2 [DPI, diphenyleneiodonium]
ROS levels (H2O2 concentration) in phloem-enriched bark tissues of CLas-positive stems [1]: reduced

O=c1[nH]c(=O)c2[nH]c(=O)[nH]c2[nH]1 [uric acid]
HLB symptoms compared with before treatment ([2]; six weeks after first weekly foliar spray, uric acid 1.8 mM, rutin 0.6 mM, GA): significantly reduced
H2O2 concentration in exudates of phloem-enriched bark tissues ([2]; uric acid 1.8 mM, rutin 0.6 mM): reduced
cell death (ion leakage) in exudates of phloem-enriched bark tissues ([2]; uric acid 1.8 mM, rutin 0.6 mM): reduced
H2O2 concentration in exudates of phloem-enriched bark tissues [2, 9]: reduce
cell death (ion leakage) in exudates of phloem-enriched bark tissues [2, 9]: reduce
H2O2 concentration ([3]; addition of uric acid 0.2 mM (text cites FIG. 5C)): reduced
cell death of protoplast cells caused by H2O2 ([3]; addition of uric acid 0.2 mM, 24 h): reduced

[H]/N=C(/N)N[C@H]1[C@H](O)[C@@H](O)[C@H](O[C@@H]2O[C@@H](C)[C@](O)(C=O)[C@H]2O[C@@H]2O[C@@H](CO)[C@H](O)[C@@H](O)[C@@H]2NC)[C@@H](N/C(N)=N\[H])[C@@H]1O [streptomycin, streptomycin sulfate]
H2O2 content in the phloem tissues [4]: significantly reduced
ion leakage in the phloem tissues [4]: significantly reduced
CLas titers ([4]; phloem tissues): significantly reduced

OO [H2O2]
concentration inhibiting growth of plants [5]: 1 mM
cell death of C. sinensis protoplast cells ([3]; H2O2 0.6 mmol/L or lower, 24 h): not
cell death of C. sinensis protoplast cells ([3]; H2O2 1.8 mmol/L, 24 h): induced cell death
viability of protoplast cells (FDA staining) ([3]; different concentrations of H2O2, 24 h): kills
concentration inducing necrosis [6]: 700 µmol/L

C=C1C[C@]23C[C@@]1(O)CC[C@H]2[C@@]12C=C[C@H](O)[C@@](C)(C(=O)O1)[C@H]2[C@@H]3C(=O)O [GA, Gibberellic acid]
expression of RbohD [7]: inhibited
expression of genes encoding H2O2 scavenging enzymes catalases, ascorbate peroxidases and glutathione peroxidases [7]: induced
H2O2 caused by CLas (phloem exudates) [2, 10]: reduced
ion leakage caused by CLas (phloem exudates) [2, 10]: reduced
H2O2 caused by CLas (phloem exudates) [2, 11]: reduced
ion leakage caused by CLas (phloem exudates) [2, 11]: reduced
growth as indicated by new flushes ([2]; six weeks after foliar spray, vs water control): promoted growth
death of C. sinensis protoplast cells caused by 1.8 mM H2O2 ([3]; GA 5 mg/L, 24 h): suppresses
plant growth: canopy volume [8, 12]: significantly promoted
plant growth: tree height [8, 12]: significantly promoted
plant growth: trunk diameter [8, 12]: significantly promoted
HLB disease symptoms [8, 13]: significantly reduced; also recorded: suppresses
percentage of symptomatic leaves (ratio symptomatic leaves vs total leaves) [8, 13]: significantly reduced
HLB disease incidence (infected trees) ([8]; in vivo): 100%
